We go through 4 compounds from BindingDB's records for patent US20260014125 (Haihe Biopharma, 2026).

Structures are written as SMILES.

The target in this experiment is S-adenosylmethionine synthase isoform type-2 (Homo sapiens, UniProt P31153). Nature of the experiment: Enzymatic Activity of MAT2A. On the procedure:
1. 1×Assaybuffer (buffer composition: Tris, KCl, MgCl2, BSA, Brij35, and EDTA; the solvent was ultrapure water) was prepared. MAT2A his-tag enzyme solution (containing 1.3 μL of MAT2A enzyme and 998.7 μL of 1×Assaybuffer per 1000 μL) and substrate mixed solution (containing 5 μL of ATP, 1.3 μL of L-methionine, and 993.7 μL of 1×Assaybuffer per 1000 μL) were prepared using 1×AssayBuffer.2. Preparation of compound concentration gradient: The test compound was tested with a starting concentration of 10 μM, and 10 […] concentrations were set according to a 3-fold dilution. Specifically, firstly, the compound was diluted into 10 different concentrations of series solutions in a 384 well plate (with final detection concentrations of 10, 3.33, 1.11, 0.37, 0.123, 0.041, 0.0137, 0.0046, 0.0015, and 0.0005 μM), and then 250 nL of the above series solutions was transferred to the 384 well reaction plate using an ultrasonic pipetting system Echo550 for later use. 250 nL of 100% DMSO was added into a negative control well and a positive control well, respectively. Double well test.3. 15 μL of MAT2A his-tag enzyme solution was added into both the compound well and the positive control well; and 15 μL of 1×Assaybuffer was added into the negative control well.4. The 384 well plate reaction plate was centrifuged at 1000 rpm for 60 seconds, shaken, mixed well, and incubated for 15 minutes. 10 μL of substrate mixed solution was added into each experimental well of the 384 well reaction plate to initiate the reaction.5. The 384 well reaction plate was centrifuged at 1000 rpm for 60 seconds, shaken, mixed well, and incubated for 150 minutes.6. 50 μL of enzyme reaction termination solution Biomol was added into all experimental wells of the 384 well reaction plate to terminate the reaction, centrifuged at 1000 rpm for 60 seconds, and incubated for 15 minutes. OD620 was Data analysis: the inhibition rate (%) of the compound was calculated and fitted to obtain the IC50 of the tested compound.

Sequence of S-adenosylmethionine synthase isoform type-2 (P31153 whole entry, canonical isoform): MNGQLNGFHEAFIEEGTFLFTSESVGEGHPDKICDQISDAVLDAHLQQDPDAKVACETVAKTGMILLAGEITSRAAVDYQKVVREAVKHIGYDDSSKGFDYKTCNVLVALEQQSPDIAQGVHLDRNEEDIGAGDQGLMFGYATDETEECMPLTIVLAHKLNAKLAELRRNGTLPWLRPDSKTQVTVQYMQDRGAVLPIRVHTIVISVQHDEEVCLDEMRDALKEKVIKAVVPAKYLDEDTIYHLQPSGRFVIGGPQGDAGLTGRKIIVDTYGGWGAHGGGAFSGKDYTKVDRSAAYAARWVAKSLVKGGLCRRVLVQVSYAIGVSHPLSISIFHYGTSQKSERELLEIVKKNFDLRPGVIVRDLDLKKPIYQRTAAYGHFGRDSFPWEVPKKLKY

Turning to `CCOc1c(-c2ccc(OC(F)F)cc2)c(=O)n(-c2ccc3nn(CCOC)cc3c2)c2[nH]ncc12` [US20260014125, Compound 21], the IC50 (in general, the concentration at which inhibition is half-maximal) turned out to be 0.0083 µM.

Take `CCOc1c(-c2ccc(OC(F)F)cc2)c(=O)n(-c2ccn3nccc3c2)c2[nH]ncc12` [US20260014125, Compound 23]: half-maximal inhibition (IC50) was put at 0.0098 µM.

Compound `CCOc1c(-c2ccc(OC(F)F)cc2)c(=O)n(-c2ccc3nccn3c2)c2[nH]ncc12` [US20260014125, Compound 24] came in with an IC50 of 0.0159 µM.

On to `CCOc1c(-c2ccc(OC(F)F)cc2)c(=O)n(-c2ccc3ncnn3c2)c2[nH]ncc12` [US20260014125, Compound 25], for which the IC50 came to 0.014 µM.
